{
  "source": "patent US20120142766A1",
  "about": "“SUBSTITUTED 1,3-DIOXANES AND THEIR USES” (EVOLVA SA, priority 2007, published 2012)",
  "key": {"[1]": {"tested_on": "Human platelet rich plasma", "assay": "TP receptor platelet aggregation, human (U-46619-induced)", "format": "cell-based", "details": "3 μM U-46619-induced", "method": "Thrombosis Research 33:277-288.\nTP Receptor Platelet Aggregation—Human:\nHuman (60±10 kg) platelet rich plasma\nAssay. Inhibition of 3 μM U-46619-induced platelet aggregation Incubation Time, Temp: 5 minutes at 37° C. Incubation Buffer Trisodium Citrate (0.13 M)-treated fresh platelet rich plasma\nTime of Assessment: 5 minutes\nQuantification Method Optical Density Change"}, "Thromboxane synthase": {"target": "T1, Thromboxane synthase (Homo sapiens, UniProt P24557)", "T1 construct": "Human Platelet Thromboxane Synthase Assay; from tissue; host or cells: human platelets", "T1 sequence (P24557 1-533)": "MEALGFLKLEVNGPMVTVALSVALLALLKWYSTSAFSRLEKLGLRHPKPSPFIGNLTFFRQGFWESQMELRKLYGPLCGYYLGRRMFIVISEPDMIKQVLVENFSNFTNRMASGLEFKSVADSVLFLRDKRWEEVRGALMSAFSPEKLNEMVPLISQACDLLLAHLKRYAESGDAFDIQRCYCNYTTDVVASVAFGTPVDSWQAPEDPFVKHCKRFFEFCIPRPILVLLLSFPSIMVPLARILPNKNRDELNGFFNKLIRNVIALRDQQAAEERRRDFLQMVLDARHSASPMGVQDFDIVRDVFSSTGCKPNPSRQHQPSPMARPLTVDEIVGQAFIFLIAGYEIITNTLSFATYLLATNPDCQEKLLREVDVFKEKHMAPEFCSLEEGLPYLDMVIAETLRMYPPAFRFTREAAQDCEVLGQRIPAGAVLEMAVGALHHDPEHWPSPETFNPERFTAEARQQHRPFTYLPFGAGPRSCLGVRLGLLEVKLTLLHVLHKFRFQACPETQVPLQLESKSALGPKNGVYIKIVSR", "assay": "Human platelet thromboxane synthase assay", "format": "biochemical", "details": "10 μM", "method": "The compounds were tested for thromboxane synthase inhibition essentially as described by Borsch-Haubold A G, Pasquet S, Watson S P. (1998) Direct inhibition of cyclooxygenase-1 and -2 by the kinase inhibitors SB 203580 and PD 98059. […] 1. Imidazole derivatives. J Med. Chem. (10):1139-48 according to the following:\nPre-incubation time, temp: 15 minutes at 25° C. Incubation time, temp: 3 minutes at 25° C.\nIncubation Buffer: 10 mM Tris-HCl, pH 7.4\nQuantification Method: EIA quantification of TxB2"}, "[2]": {"tested_on": "arterial thrombosis in a mouse model", "assay": "Arterial thrombosis mouse model (FeCl3 on femoral artery)", "format": "in vivo", "details": "i.v.", "method": "The solutions are diluted 3.3-fold in saline and 100 μl/25 g is injected. Thus, the above-mentioned doses of 100 and 300 mg/kg of compound correspond to final doses of 30 and 100 mg/kg.\nDuring the experiments, a soluble salt of the drug is provided (potassium salt of compound C), diluted in saline. Of this formulation, 100 μl/25 g is injected i.v. in the tail vein (dose of 100 mg/kg).\nSolutions are injected (100 μl/25 g body weight) i.v. in the tail vein over 2 min to obtain doses of each compound of 30 mg/kg and 100 mg/kg. Aspirin is given the same way at a dose of 200 mg/kg. Clopidogrel is administered by oral gavage at a dose of 20 mg/kg at 6-7 hours prior to the experiment. The animals assigned to each group are matched for body weight. Mice are typically 8-10 weeks old males and are in a 100% Swiss genetic background.\nThe flow in each image is expressed as a percentage of that at the contralateral side, and data are averaged for all 120 images to determine total flow. The same analysis is performed for 10 min intervals (which gives essentially the same information as the area under the curve). […] Flow before treatment is recorded as 100%, and that in occluded arteries as 0%. At the end of the experiment, blood is collected on 0.01M citrate by heart puncture for determination of blood cell counts. Plasma is prepared by centrifugation and stored at −20° C. for determination of drug levels.\nStatistical analysis for differences between two groups is performed by non-parametric Student t-test. Occlusion times >30 min were considered equal to 30 min for statistical analysis. Significance is set at p<0.05."}, "[3]": {"target": "T2, Human Recombinant (E. coli) PPARgamma (Homo sapiens, UniProt P37231)", "T2 construct": "host or cells: E. coli", "T2 sequence (P37231 1-505)": "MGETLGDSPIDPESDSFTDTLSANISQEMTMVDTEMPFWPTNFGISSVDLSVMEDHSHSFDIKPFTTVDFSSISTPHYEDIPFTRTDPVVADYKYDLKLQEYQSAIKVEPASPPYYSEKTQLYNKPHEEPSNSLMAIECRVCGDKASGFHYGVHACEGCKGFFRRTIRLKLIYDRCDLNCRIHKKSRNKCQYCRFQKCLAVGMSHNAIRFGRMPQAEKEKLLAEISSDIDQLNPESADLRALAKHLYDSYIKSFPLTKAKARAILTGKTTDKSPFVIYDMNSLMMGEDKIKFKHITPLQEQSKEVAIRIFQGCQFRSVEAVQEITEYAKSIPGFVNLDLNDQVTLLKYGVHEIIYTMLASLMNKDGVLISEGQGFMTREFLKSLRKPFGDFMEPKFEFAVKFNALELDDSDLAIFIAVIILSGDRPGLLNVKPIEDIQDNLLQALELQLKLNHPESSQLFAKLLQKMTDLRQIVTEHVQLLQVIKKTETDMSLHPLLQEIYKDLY", "assay": "PPAR gamma binding assay ([3H]-rosiglitazone)", "details": "[3H]-rosiglitazone 10 nM", "method": "Incubation: 120 min. at 4° C.\nThe results are expressed as a percent of control specific binding ((measured specific binding/control specific binding)×100) obtained in the presence of the test compounds. The IC50 values (concentration causing a half-maximal inhibition of control specific binding) and Hill coefficients (nil) were determined by non-linear regression analysis of the competition curves generated with mean replicate values using Hill equation curve fitting (Y=D+[(A−D)/(1+(C/C50)nH)], where Y=specific binding, D=minimum specific binding, A=maximum specific binding, C=compound concentration, C50=IC50, and nH=slope factor). This analysis was performed using a software developed at Cerep (Hill software) and validated by comparison with data generated by the commercial software SigmaPlot® 4.0 for Windows® (© 1997 by SPSS Inc.). The inhibition constants (Ki) were calculated using the Cheng Prusoff equation (Ki=IC50/(1+(L/KD)), where L=concentration of radioligand in the assay, and KD=affinity of the radioligand for the receptor)."}},
  "note": "Where “and” joins values, the source holds several entries; their conditions need not be identical. Identical values can stand only once.",
  "data": [
    {"smiles": "O=C(O)CC/C=C\\C[C@@H]1CO[C@H](c2ccccc2Cl)O[C@@H]1c1ccccc1O", "note": "[Compound C, (Z)-6-((2S,4S,5R)-2-(2-chlorophenyl)-4-(2-hydroxyphenyl)-1,3-dioxan-5-yl)hex-4-enoic acid]", "values": [
      {"measurement": "IC50", "setting": "[1]", "value": 0.31, "unit": "µM"},
      {"measurement": "Thromboxane synthase Human platelet Inhibition (%)", "setting": "Thromboxane synthase", "value": 61, "unit": "%"},
      {"measurement": "inhibition at 10 µM", "setting": "Thromboxane synthase", "value": 43, "unit": "%"},
      {"measurement": "Occlusion time", "setting": "[2]; 30 mg/kg in vehicle", "value": "slightly prolongs the occlusion time as compared to aspirin (p=0.024), but has no effect as compared to vehicle"},
      {"measurement": "Total blood flow", "setting": "[2]; 30 mg/kg in vehicle", "value": "no effect on total blood flow"},
      {"measurement": "Occlusion time", "setting": "[2]; 100 mg/kg in vehicle", "value": "prolongs the occlusion time versus aspirin (p=0.0002), but not versus vehicle only (p=0.095)"},
      {"measurement": "Total blood flow", "setting": "[2]; 100 mg/kg in vehicle", "value": "slightly improved total blood flow as compared to aspirin (p=0.055), but not as compared to vehicle (p=0.45)"},
      {"measurement": "Blood flow in the time window 0-10 min", "setting": "[2]; 100 mg/kg in vehicle, 0-10 min", "value": "significantly higher flow as compared to aspirin (p=0.0002) but not as compared to vehicle only (p=0.11)"},
      {"measurement": "Ki", "setting": "[3]; Cheng Prusoff, read-out: PPARγ binding Ki", "value": "1.8 µM and 4.3 µM"},
      {"measurement": "IC50", "setting": "[3]; read-out: PPARγ binding IC50", "value": "4.9 µM and 12 µM"}
    ]}
  ]
}
